Test results from patent US20260266848A1, “COMPOSITIONS AND METHODS FOR DIAGNOSING AND TREATING DYSTONIA” (Duke University, priority 2023, published 2026).

Test system: DYT-TOR1A MEF EVs
Assay: Quantitative LC-MS/MS proteomics of EVs from drug-treated DYT-TOR1A MEF cultures (ritonavir, salubrinal)
Type: cell-based, mouse

## O=C(/C=C/c1ccccc1)NC(NC(=S)Nc1cccc2cccnc12)C(Cl)(Cl)Cl (stereo not drawn) [salubrinal]
DYT + Sal/DYT, 20 μM, 24 h
  Acaa1a (ACAA1) EV abundance Cohen's d: −0.1738
  Ano6 (ANO6) EV abundance Cohen's d: 0.1593
  Ap1b1 (AP1B1) EV abundance Cohen's d: −0.5479
  Ar18b (ARL8B) EV abundance Cohen's d: −0.5773
  Bzw2 (BZW2) EV abundance Cohen's d: 0.2815
  Cryab (CRYAB) EV abundance Cohen's d: 1.101
  DIst (DLST) EV abundance Cohen's d: −0.973
  Ehd4 (EHD4) EV abundance Cohen's d: −0.4717
  Flna (FLNA) EV abundance Cohen's d: 0.4828
  Fscn1 (FSCN1) EV abundance Cohen's d: 0.7138
  Gart (GART) EV abundance Cohen's d: 0.6261
  Hist1h1b (H1-5) EV abundance Cohen's d: 0.4792
  Hnrnpc (HNRNPC) EV abundance Cohen's d: −0.5111
  Ipo9 (IPO9) EV abundance Cohen's d: 0.1652
  Jam3 (JAM3) EV abundance Cohen's d: −0.5387
  Lipg (LIPG) EV abundance Cohen's d: 0.6163
  Lrrc59 (LRRC59) EV abundance Cohen's d: 0.4615
  Mapk3 (MAPK3) EV abundance Cohen's d: −0.3187
  Mars (MARS1) EV abundance Cohen's d: −0.2456
  Mrc2 (MRC2) EV abundance Cohen's d: 0.3301
  Myh9 (MYH9) EV abundance Cohen's d: −0.2884
  Ndnf (NDNF) EV abundance Cohen's d: −0.4227
  Pcmt1 (PCMT1) EV abundance Cohen's d: −0.2746
  Pi4ka (PI4KA) EV abundance Cohen's d: 0.7656
  Pitpnb (PITPNB) EV abundance Cohen's d: 0.6644
  Prpsap2 (PRPSAP2) EV abundance Cohen's d: −1.257
  Psmc5 (PSMC5) EV abundance Cohen's d: 1.22
  Psmd12 (PSMD12) EV abundance Cohen's d: 1.234
  Psme4 (PSME4) EV abundance Cohen's d: −0.3917
  Ptma (PTMA) EV abundance Cohen's d: 0.9729
  Rap2b (RAP2B) EV abundance Cohen's d: −0.249
  Rbm3 (RBM3) EV abundance Cohen's d: 0.2607
  Rhoa (RHOA) EV abundance Cohen's d: −0.6572
  Rpl10 (RPL10) EV abundance Cohen's d: −0.3597
  Rpl13a (RPL13A) EV abundance Cohen's d: −0.4797
  Rps13 (RPS13) EV abundance Cohen's d: −0.1409
  Sec31a (SEC31A) EV abundance Cohen's d: −0.2355
  Slc2a1 (SLC2A1) EV abundance Cohen's d: −0.3172
  Stom (STOM) EV abundance Cohen's d: −0.4048
  Tardbp (TARDBP) EV abundance Cohen's d: 0.4522
  Tgfb2 (TGFB2) EV abundance Cohen's d: −0.3293
  Tln1 (TLN1) EV abundance Cohen's d: 0.5665
  Tln2 (TLN2) EV abundance Cohen's d: 0.5488
  Tubb1 (TUBB1) EV abundance Cohen's d: 0.246
  Usp7 (USP7) EV abundance Cohen's d: 1.229
  Wdr26 (WDR26) EV abundance Cohen's d: −0.1895
  Zyx (ZYX) EV abundance Cohen's d: −0.5814
DYT-TOR1A MEF EVs, 20 μM each, 24 h
  Pearson r between ritonavir and salubrinal effects on putative DYT-TOR1A biomarker proteins: 0.47
DYT/DYT + Sal, 20 μM, 24 h
  Acaa1a (ACAA1) EV abundance Cohen's d: −0.1738
  Ano6 (ANO6) EV abundance Cohen's d: 0.1593
  Ap1b1 (AP1B1) EV abundance Cohen's d: −0.5479
  Arl8b (ARL8B) EV abundance Cohen's d: −0.5773
  Bzw2 (BZW2) EV abundance Cohen's d: 0.2815
  Cryab (CRYAB) EV abundance Cohen's d: 1.101
  DIst (DLST) EV abundance Cohen's d: −0.973
  Ehd4 (EHD4) EV abundance Cohen's d: −0.4717
  Flna (FLNA) EV abundance Cohen's d: 0.4828
  Fscn1 (FSCN1) EV abundance Cohen's d: 0.7138
  Gart (GART) EV abundance Cohen's d: 0.6261
  Hist1h1b (H1-5) EV abundance Cohen's d: 0.4792
  Hnrnpc (HNRNPC) EV abundance Cohen's d: −0.5111
  Ipo9 (IPO9) EV abundance Cohen's d: 0.1652
  Jam3 (JAM3) EV abundance Cohen's d: −0.5387
  Lipg (LIPG) EV abundance Cohen's d: 0.6163
  Lrrc59 (LRRC59) EV abundance Cohen's d: 0.4615
  Mapk3 (MAPK3) EV abundance Cohen's d: −0.3187
  Mars (MARS1) EV abundance Cohen's d: −0.2456
  Mrc2 (MRC2) EV abundance Cohen's d: 0.3301
  Myh9 (MYH9) EV abundance Cohen's d: −0.2884
  Ndnf (NDNF) EV abundance Cohen's d: −0.4227
  Pcmt1 (PCMT1) EV abundance Cohen's d: −0.2746
  Pi4ka (PI4KA) EV abundance Cohen's d: 0.7656
  Pitpnb (PITPNB) EV abundance Cohen's d: 0.6644
  Prpsap2 (PRPSAP2) EV abundance Cohen's d: −1.257
  Psmc5 (PSMC5) EV abundance Cohen's d: 1.22
  Psmd12 (PSMD12) EV abundance Cohen's d: 1.234
  Psme4 (PSME4) EV abundance Cohen's d: −0.3917
  Ptma (PTMA) EV abundance Cohen's d: 0.9729
  Rap2b (RAP2B) EV abundance Cohen's d: −0.249
  Rbm3 (RBM3) EV abundance Cohen's d: 0.2607
  Rhoa (RHOA) EV abundance Cohen's d: −0.6572
  Rpl10 (RPL10) EV abundance Cohen's d: −0.3597
  Rpl13a (RPL13A) EV abundance Cohen's d: −0.4797
  Rps13 (RPS13) EV abundance Cohen's d: −0.1409
  Sec31a (SEC31A) EV abundance Cohen's d: −0.2355
  Slc2a1 (SLC2A1) EV abundance Cohen's d: −0.3172
  Stom (STOM) EV abundance Cohen's d: −0.4048
  Tardbp (TARDBP) EV abundance Cohen's d: 0.4522
  Tgfb2 (TGFB2) EV abundance Cohen's d: −0.3293
  Tln1 (TLN1) EV abundance Cohen's d: 0.5665
  Tln2 (TLN2) EV abundance Cohen's d: 0.5488
  Tubb1 (TUBB1) EV abundance Cohen's d: 0.246
  Usp7 (USP7) EV abundance Cohen's d: 1.229
  Wdr26 (WDR26) EV abundance Cohen's d: −0.1895
  Zyx (ZYX) EV abundance Cohen's d: −0.5814
salubrinal
  proteins reduced in both mouse and human EVs whose abundance is modulated toward correction in DYT1 cells (and toward DYT1-like by ISRIB in WT cells): 4 of the 7
